Experimental data published in BindingDB's records for doi:10.1021/jm00196a019 (1979).

Tested on: Enterococcus faecalis
Assay: Antibacterial activity against Streptococcus faecalis assessed as growth inhibition

In the case of Nc1nc(N)c2cc(S(=O)(=O)c3ccc4ccccc4c3)ccc2n1 [6-naphthalen-2-ylsulfonylquinazoline-2,4-diamine], the IC50 is reported as 0.02 nM.
